# Experimental data taken from patent publication US7094593B1, “Method for improving the function of heterologous G protein-coupled receptors” (priority 1998, dated 2006).
# How the values were obtained:
# [1] = target: IC3Δ human alpha2A adrenergic receptor (Homo sapiens, UniProt P08913, DEL273-347)
# Method: (§2) Yeast cells containing the wild type IC3Δ human alpha2A adrenergic receptor were assayed in liquid culture using the alpha adrenergic receptor full agonist UK14304 (RBI) and partial agonist clonidine.
# [2] = target: wild type human alpha2A adrenergic receptor (Homo sapiens, UniProt P08913); conditions: yeast cells containing wild type receptor, 18 hours
# Method: as §2
# [3] = target: T1, DMAR-M3 MAR IC3Δ (Drosophila melanogaster, UniProt P16395, C285T/D301E/F279L/F286I/K296E/N304G/P303A/Q299T/R293K/W292Y); experiment: Liquid culture yeast growth assay, mutated DMAR containing the M3 MAR IC3Δ; assay type: cell-based, D. melanogaster; conditions: yeast cells containing mutated DMAR with M3 MAR IC3Δ
# T1 construct: expressed in transfected cells; host or cells: Saccharomyces cerevisiae MPY578fc, plasmid p426GPD
# Method: (§1) In order to construct the IC3 replacement, PCR fragments encoding three domains were prepared by standard means. Fragment 1 consisted of the amino terminal coding portion of the Drosophila MAR up to an Agel site within the 5th TMD, amplified by PCR using oligonucleotides (AAA AGATCT AAA ATG […]) (SEQ ID NO: 7) and (CCA GTA GAG GAA […] AGGCCT AAGTAGAAGGCGGCCAGTGC) (SEQ ID NO: 8). The second fragment of the DMAR was composed of carboxy terminal coding sequences starting with a PmII site in the 6th TMD, amplified by PCR using oligonucleotides ([…]) (SEQ ID NO: 9) and (AAA CTCGAG […]) (SEQ ID NO: 10). The M3 MAR IC3Δ domain was amplified as an Agel-PmII fragment with coding sequence in frame with fragments 1 and 2, described in Example 1. These fragments were assembled in plasmid p426GPD to place the mutated DMAR under control of the GPD promoter. The wild type DMAR was cloned into the expression vector, pMP3, described in U.S. Pat. No. 5,691,188.
# [4] = target: T2, wild type D. melanogaster MAR (DMAR) (Drosophila melanogaster, UniProt P16395); experiment: Liquid culture yeast growth assay, wild type DMAR; assay type: cell-based; conditions: yeast cells containing wild type DMAR
# T2 construct: expressed in transfected cells; host or cells: Saccharomyces cerevisiae MPY578fc, plasmid pMP3
# T2 sequence (P16395 1-805): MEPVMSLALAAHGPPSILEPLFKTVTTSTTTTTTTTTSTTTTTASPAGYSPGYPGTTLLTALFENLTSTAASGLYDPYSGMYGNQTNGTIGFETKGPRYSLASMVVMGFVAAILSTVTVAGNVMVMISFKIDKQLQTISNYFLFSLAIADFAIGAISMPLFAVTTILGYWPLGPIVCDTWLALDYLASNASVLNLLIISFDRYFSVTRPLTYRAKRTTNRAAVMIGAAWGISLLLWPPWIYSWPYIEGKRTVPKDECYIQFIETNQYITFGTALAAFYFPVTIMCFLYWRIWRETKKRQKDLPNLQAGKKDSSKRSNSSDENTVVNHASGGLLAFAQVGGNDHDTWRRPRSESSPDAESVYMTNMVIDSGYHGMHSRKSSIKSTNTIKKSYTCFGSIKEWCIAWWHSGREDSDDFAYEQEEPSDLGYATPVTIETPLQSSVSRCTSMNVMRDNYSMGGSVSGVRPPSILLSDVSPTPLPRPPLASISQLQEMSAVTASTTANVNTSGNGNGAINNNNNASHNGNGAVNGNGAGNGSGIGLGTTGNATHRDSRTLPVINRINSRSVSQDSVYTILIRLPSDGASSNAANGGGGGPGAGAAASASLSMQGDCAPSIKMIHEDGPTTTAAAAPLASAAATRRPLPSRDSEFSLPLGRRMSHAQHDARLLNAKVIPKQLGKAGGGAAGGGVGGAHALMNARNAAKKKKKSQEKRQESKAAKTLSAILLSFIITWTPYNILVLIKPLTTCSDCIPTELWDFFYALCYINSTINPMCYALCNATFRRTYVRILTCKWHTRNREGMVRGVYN
# Method: as §1
# [5] = system: Ce 5HTR-M3 MAR IC3Δ; experiment: Liquid culture yeast growth assay, Ce 5HTR containing the M3 MAR IC3Δ; assay type: cell-based, C. elegans; conditions: for antagonist effect on growth inducing effect of serotonin: antagonist at 10 μM
# Method: In order to construct the IC3 replacement, PCR fragments encoding three domains were prepared by standard means. Fragment 1 contains the amino terminal-coding portion of the Ce 5HTR to the intracellular interface of the 5th TMD, amplified by PCR using oligonucleotides ([…]) (SEQ ID NO: 27) and ([…] […] […]) (SEQ ID NO: 28). The second fragment of the Ce 5HTR contains carboxy-terminal coding sequences starting proximal to the intracellular interface of the 6th TMD, amplified by PCR using oligonucleotides ([…]) (SEQ ID NO: 29) and ([…] […] […]) (SEQ ID NO: 30). The M3 MAR IC3Δ domain was amplified by PCR as described in Example 1.
# These fragments were isolated, mixed and amplified by PCR with 5′ ([…]) (SEQ ID NO: 27) and 3′ ([…]) ([…]) oligonucleotides. The resulting fragment was digested with appropriate restriction endonucleases and assembled in p426GPD to place the mutated Ce 5HTR under control of the GPD promoter.
# Yeast cells containing the Ce 5HTR were assayed in liquid culture. […] In similar reactions, the serotonergic antagonists lisuride and mianserin were added to each well at 10 μM. […] Ki values were determined using the equation of Cheng and Pruesoff. (Y Cheng et al. (1973)).
# T1 sequence (P16395 other isoform, or with tags, fused parts or gaps F279L/C285T/F286I/W292Y/R293K/K296E/Q299T/D301E/P303A/N304G): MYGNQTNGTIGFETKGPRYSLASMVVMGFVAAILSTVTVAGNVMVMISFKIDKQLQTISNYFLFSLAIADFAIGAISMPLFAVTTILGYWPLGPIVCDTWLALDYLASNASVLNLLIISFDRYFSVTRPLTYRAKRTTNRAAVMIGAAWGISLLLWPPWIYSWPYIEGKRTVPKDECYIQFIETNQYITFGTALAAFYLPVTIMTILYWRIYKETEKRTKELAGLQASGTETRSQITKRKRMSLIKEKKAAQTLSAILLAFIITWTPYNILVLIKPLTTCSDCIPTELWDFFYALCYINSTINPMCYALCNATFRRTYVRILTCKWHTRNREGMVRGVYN
# wild type human alpha2A adrenergic receptor, sequence (P08913 whole entry): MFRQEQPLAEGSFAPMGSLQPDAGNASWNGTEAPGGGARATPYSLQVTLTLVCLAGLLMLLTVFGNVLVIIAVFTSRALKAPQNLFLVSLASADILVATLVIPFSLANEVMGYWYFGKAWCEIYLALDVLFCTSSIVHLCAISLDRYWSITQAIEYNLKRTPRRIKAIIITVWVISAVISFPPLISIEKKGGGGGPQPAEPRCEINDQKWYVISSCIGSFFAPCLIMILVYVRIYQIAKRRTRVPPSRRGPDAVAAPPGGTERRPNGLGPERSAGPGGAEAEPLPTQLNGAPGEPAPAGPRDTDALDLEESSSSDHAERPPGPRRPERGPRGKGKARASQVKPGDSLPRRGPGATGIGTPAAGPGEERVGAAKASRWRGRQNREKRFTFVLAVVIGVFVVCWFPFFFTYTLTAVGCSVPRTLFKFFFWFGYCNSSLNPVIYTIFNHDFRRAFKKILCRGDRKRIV
# IC3Δ human alpha2A adrenergic receptor, sequence (P08913 with tags, fused parts or gaps DEL273-347 limits assumed): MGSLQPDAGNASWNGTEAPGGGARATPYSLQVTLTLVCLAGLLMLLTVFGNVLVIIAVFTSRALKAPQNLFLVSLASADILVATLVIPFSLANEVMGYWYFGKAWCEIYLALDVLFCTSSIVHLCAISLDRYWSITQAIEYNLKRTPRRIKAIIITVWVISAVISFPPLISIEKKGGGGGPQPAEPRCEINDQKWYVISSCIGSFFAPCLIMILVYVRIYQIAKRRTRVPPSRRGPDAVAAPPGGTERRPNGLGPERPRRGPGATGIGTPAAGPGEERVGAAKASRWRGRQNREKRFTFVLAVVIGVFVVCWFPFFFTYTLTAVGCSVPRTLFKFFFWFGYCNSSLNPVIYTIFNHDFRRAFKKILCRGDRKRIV
smiles,measurement,setting,value
Brc1c(NC2=NCCN2)ccc2nccnc12 [UK14304],yeast cell growth response,[1],dose-dependent growth response
same,yeast cell growth response,[2],dose-dependent growth response
C[N+](C)(C)CCOC(N)=O [carbachol],agonist-dependent yeast cell growth,[3],agonist-dependent growth response
same,agonist-dependent yeast cell growth,[4],lack of agonist-dependent yeast cell growth
CCN(CC)C(=O)N[C@H]1C=C2c3cccc4[nH]cc(c34)C[C@H]2N(C)C1 [lisuride],antagonist effect on growth inducing effect of serotonin,[5],blocked
CN1CCN2c3ccccc3Cc3ccccc3C2C1 (stereo not shown) [mianserin],antagonist effect on growth inducing effect of serotonin,[5],blocked
NCCc1c[nH]c2ccc(O)cc12 [serotonin],agonist-dependent yeast cell growth,"[5]; yeast cells containing Ce 5HTR-M3 MAR IC3Δ, 18 hours",agonist-dependent growth response
